Experimental data from the supplement of paper PMC5908809.

How the values were obtained:
[1] = test system: normal NK cells expanded with K562-aAPC; experiment: percent inhibition of viability; higher = more inhibition; conditions: 72 h, IL-2 2.5 ng/mL
Description: (§1)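 Drug sensitivity and resistance testing on K562-aAPC-expanded normal NK cells: 5 concentrations (10-fold steps over a 10,000-fold range), 72 h at 37 °C, viability by CellTiter-Glo normalised to DMSO and benzethonium chloride controls; DSS from the fitted curve.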

DERL-7 (IL-2 2.5 ng/mL) [2] = experiment: as above; conditions: 72 h
IMC-1 (IL-2 20 ng/mL) [3] = experiment: as above; conditions: 72 h
KAI3 (IL-2 2.5 ng/mL) [4] = experiment: as above; conditions: 72 h
KHYG-1 (IL-2 2.5 ng/mL) [5] = experiment: as above; conditions: 72 h
NK-92 (IL-2 2.5 ng/mL) [6] = experiment: as above; conditions: 72 h
NK-YS (IL-2 2.5 ng/mL) [7] = experiment: as above; conditions: 72 h
NKL (IL-2 2.5 ng/mL) [8] = experiment: as above; conditions: 72 h
SNK-6 (IL-2 2.5 ng/mL) [9] = experiment: as above; conditions: 72 h
YT (IL-2 2.5 ng/mL) [10] = experiment: as above; conditions: 72 h
[11] = test system: normal primary NK cells, pool 1 (3 donors) (IL-2 2.5 ng/mL); experiment: as above; conditions: 72 h
[12] = test system: normal primary NK cells, pool 1 (3 donors), resting (IL-2 0 ng/mL); experiment: as above; conditions: 72 h
[13] = test system: normal primary NK cells, pool 2 (3 donors) (IL-2 2.5 ng/mL); experiment: as above; conditions: 72 h
[14] = test system: normal primary NK cells, pool 3 (3 donors) (IL-2 2.5 ng/mL); experiment: as above; conditions: 72 h
[15] = test system: normal NK cells expanded with K562-aAPC; experiment: drug sensitivity score (DSS) (DSS units); higher = more sensitive; extreme values may be limits of the assay; conditions: 72 h; IL-2 2.5 ng/mL
Description: as §1

DERL-7 (IL-2 2.5 ng/mL) [16] = experiment: as above; conditions: 72 h
IMC-1 (IL-2 20 ng/mL) [17] = experiment: as above; conditions: 72 h
KAI3 (IL-2 2.5 ng/mL) [18] = experiment: as above; conditions: 72 h
KHYG-1 (IL-2 2.5 ng/mL) [19] = experiment: as above; conditions: 72 h
NK-92 (IL-2 2.5 ng/mL) [20] = experiment: as above; conditions: 72 h
NK-YS (IL-2 2.5 ng/mL) [21] = experiment: as above; conditions: 72 h
NKL (IL-2 2.5 ng/mL) [22] = experiment: as above; conditions: 72 h
SNK-6 (IL-2 2.5 ng/mL) [23] = experiment: as above; conditions: 72 h
YT (IL-2 2.5 ng/mL) [24] = experiment: as above; conditions: 72 h
[25] = test system: normal primary NK cells, pool 1 (3 donors) (IL-2 2.5 ng/mL); experiment: as above; conditions: 72 h
[26] = test system: normal primary NK cells, pool 1 (3 donors), resting (IL-2 0 ng/mL); experiment: as above; conditions: 72 h
[27] = test system: normal primary NK cells, pool 2 (3 donors) (IL-2 2.5 ng/mL); experiment: as above; conditions: 72 h
[28] = test system: normal primary NK cells, pool 3 (3 donors) (IL-2 2.5 ng/mL); experiment: as above; conditions: 72 h

C1=N/C2=N/c3ccc(OCCN4CCCC4)c(c3)COC/C=C/COCc3cccc(c3)C(=C1)N2 [Pacritinib] (max concentration tested 10000 nM)
percent inhibition of viability [%]
Conditions | 1 nM | 10 nM | 100 nM | 1000 nM | 10000 nM
DERL-7 (IL-2 2.5 ng/mL) [2] | -0.5 | 3.08 | 13.1 | 64.9 | 99.9
IMC-1 (IL-2 20 ng/mL) [3] | -5.72 | -0.5 | -10.2 | -17.7 | 98.5
KAI3 (IL-2 2.5 ng/mL) [4] | -4.38 | 0.97 | 8.91 | 68.1 | 102
KHYG-1 (IL-2 2.5 ng/mL) [5] | -2.5 | -2.14 | -0.78 | 61.7 | 102
NK-92 (IL-2 2.5 ng/mL) [6] | -16.4 | -11.8 | 1.4 | 37.9 | 100
NK-YS (IL-2 2.5 ng/mL) [7] | -5.53 | 0.76 | 3.37 | 50.8 | 102
NKL (IL-2 2.5 ng/mL) [8] | -10.8 | -10.3 | -2.07 | 65.3 | 102
SNK-6 (IL-2 2.5 ng/mL) [9] | -2.06 | 1.27 | -10.4 | 30.5 | 99.4
YT (IL-2 2.5 ng/mL) [10] | -5.32 | -0.86 | -1.84 | 55.9 | 102
[1] | -2.28 | -6.13 | 9.28 | 58.8 | 99.4
[11] | 2.77 | -5.07 | 8.34 | 82.1 | 99.9
[12] | -8.26 | -5.07 | -1.15 | 60.6 | 99.4
[13] | -8.58 | 0.56 | 8.47 | 82.3 | 95.9
[14] | -10.8 | -10.8 | 0.28 | 75.3 | 98.7

Conditions | drug sensitivity score
DERL-7 (IL-2 2.5 ng/mL) [16] | 14.1
IMC-1 (IL-2 20 ng/mL) [17] | 4.5
KAI3 (IL-2 2.5 ng/mL) [18] | 14.2
KHYG-1 (IL-2 2.5 ng/mL) [19] | 12.8
NK-92 (IL-2 2.5 ng/mL) [20] | 10.7
NK-YS (IL-2 2.5 ng/mL) [21] | 11.7
NKL (IL-2 2.5 ng/mL) [22] | 13.1
SNK-6 (IL-2 2.5 ng/mL) [23] | 9.9
YT (IL-2 2.5 ng/mL) [24] | 12.2
[15] | 12.8
[25] | 16.2
[26] | 12.6
[27] | 16.2
[28] | 14.1

CC(C)C[C@H](NC(=O)[C@H](CCc1ccccc1)NC(=O)CN1CCOCC1)C(=O)N[C@@H](Cc1ccccc1)C(=O)N[C@@H](CC(C)C)C(=O)[C@@]1(C)CO1 [Carfilzomib] (max concentration tested 1000 nM)
percent inhibition of viability [%]
Conditions | 0.1 nM | 1 nM | 10 nM | 100 nM | 1000 nM
DERL-7 (IL-2 2.5 ng/mL) [2] | 0.47 | 55.2 | 101 | 101 | 101
IMC-1 (IL-2 20 ng/mL) [3] | -4.55 | -1.82 | 100 | 101 | 101
KAI3 (IL-2 2.5 ng/mL) [4] | -4.59 | 28.8 | 101 | 105 | 107
KHYG-1 (IL-2 2.5 ng/mL) [5] | -8.88 | 2.3 | 101 | 105 | 105
NK-92 (IL-2 2.5 ng/mL) [6] | 1.15 | 15.4 | 101 | 106 | 106
NK-YS (IL-2 2.5 ng/mL) [7] | -4.19 | 3.04 | 101 | 104 | 105
NKL (IL-2 2.5 ng/mL) [8] | -2.93 | -11 | 102 | 106 | 108
SNK-6 (IL-2 2.5 ng/mL) [9] | -4.32 | 5.11 | 99.5 | 101 | 101
YT (IL-2 2.5 ng/mL) [10] | -5.39 | 1.26 | 100 | 105 | 105
[1] | -5.98 | -4.15 | 96.8 | 101 | 101
[11] | -1.09 | 26.1 | 97.9 | 99.6 | 99.8
[12] | -8.37 | 33.8 | 94 | 98.4 | 98.3
[13] | -2.72 | 22.8 | 97.1 | 99.5 | 99.7
[14] | -8.33 | 11.5 | 94.8 | 100 | 101

Conditions | drug sensitivity score
DERL-7 (IL-2 2.5 ng/mL) [16] | 37.2
IMC-1 (IL-2 20 ng/mL) [17] | 30.3
KAI3 (IL-2 2.5 ng/mL) [18] | 34.8
KHYG-1 (IL-2 2.5 ng/mL) [19] | 30.9
NK-92 (IL-2 2.5 ng/mL) [20] | 33.1
NK-YS (IL-2 2.5 ng/mL) [21] | 30.9
NKL (IL-2 2.5 ng/mL) [22] | 29.9
SNK-6 (IL-2 2.5 ng/mL) [23] | 31.1
YT (IL-2 2.5 ng/mL) [24] | 30.6
[15] | 29.7
[25] | 34
[26] | 34.1
[27] | 33.4
[28] | 31.4
